According to US12029734B2, “Compositions and methods for treatment of symptoms in Parkinson's disease patients” (Tyler Medical Research, LLC, priority 2011, dated 2024):
Like-named read-outs stand apart in the source and are kept apart here.

Key:
[1] = cited from earlier work
[2] = test system: patients with idiopathic PD and LIDS
Description: (§1) Safety was assessed by incidences of adverse experiences (AE), clinical laboratory tests, serum cotinine, ECG and vital signs. Impulsive symptoms were assessed using the Jay Modified Minnesota Impulsive Disorders Interview (JayMidi). Withdrawal symptoms were evaluated using the Minnesota Nicotine Withdrawal Scale (MNWS-R).

[3] = test system: patients with idiopathic PD and LIDS; remark: listed apart in the source
From the text: A total of 65 patients with idiopathic PD and LIDS were enrolled in a phase II study. Major entry criteria were as follows: 1) Hoehn and Yahr Stage II-IV while in “on” state, 2) had moderately to severely disabling LIDS>25% of waking day as determined by a rating of >2 on each of Questions 32 and 33 of the Unified Parkinson's Disease Rating Scale (UPDRS), 3) be on stable doses of levodopa and other medicines for PD for >30 days, 4) have a negative screening urine test for cotinine, and 5) not be a smoker or previous smoker or regular exposure to second-hand smoke. The study consisted of 3 phases: a treatment period of 10 weeks, a 9-day drug taper period, and a 5-day follow-up period. Subjects were randomly assigned to receive either nicotine or placebo (pbo). Dosing began at 1 mg q6 hr and was escalated at 2-week intervals to 6 mg q6 hr (24 mg/day). All subjects were allowed to take ondansetron as rescue medication for the treatment of nausea and/or vomiting for the first 3 days of each dose escalation. Subjects were maintained on 24 mg/day for 4 weeks.
Efficacy was assessed using the UPDRS (total of Parts II+III+IV), sum of Q32+Q33, Unified Dyskiensia Rating Scale (UDysRS) total scores and subscores, Lang-Fahn Dyskinesia Activities of Daily Living Scale (LF-ADL), physician and patient ratings of improvement from baseline in dyskinesias on 7-point CGI-C and PGI-C scales, and responder analyses (subjects with >25% improvement from baseline) on UDysRS total score and LF-ADL, and % subjects with any improvement on PGI-C and CGI-C.
The safety population for all safety analyses consisted of all subjects who received at least 1 dose of nicotine or placebo.

[4] = test system: patients with idiopathic PD and LIDS; test: Phase II clinical trial of nicotine: safety assessments (AEs, laboratory tests, serum cotinine, ECG, JayMidi, MNWS-R); settings: human, in vivo
Description: as §1

**Q.** With `N[C@@H](Cc1ccc(O)c(O)c1)C(=O)O` [Levodopa, L-3,4-dihydroxyphenylalanine (S)-2-amino-3-(3,4-dihydroxyphenyl)propanoic acid] as the molecule, how does the solubility in water [1] read?
**A.** slightly soluble in water

**Q.** For `CN1CCC[C@H]1c1cccnc1` [nicotine, 3-[(2S)-1-methylpyrrolidin-2-yl]pyridine], which “overall safety and tolerability” value ([2]; PD patients with LIDS, oral, escalated from 1 mg q6 hr to 6 mg q6 hr (24 mg/day), 10 weeks) is on record?
**A.** generally safe and well-tolerated

**Q.** And the “withdrawal symptoms, MNWS-R score (maximal score 60)” value ([2]; Week 10 (end of drug treatment))?
**A.** 7.5

**Q.** And the “relation of SAEs to study medication” value ([2]; all SAEs)?
**A.** unrelated to study medication

**Q.** And the “withdrawal symptoms, MNWS-R score (maximal score 60)” value ([2]; end of the follow-up period)?
**A.** 5.4

**Q.** What about the “occurrences of impulsivity disorders (positive score on any JayMidi module)” value ([2]; nicotine group) of the same molecule?
**A.** 1 subject

**Q.** And the “overall incidence of serious AEs (SAE)” value ([2]; nicotine group)?
**A.** 4 subjects

**Q.** And the “percentage of subjects reporting treatment-related AEs” value ([2]; nicotine group)?
**A.** 54%

**Q.** And the “subjects who used rescue medication (ondansetron)” value ([2]; nicotine group)?
**A.** Twenty-nine

**Q.** What about the “treatment-emergent AE: constipation, subjects” value ([2]; nicotine group) of the same molecule?
**A.** 11%

**Q.** What about the “treatment-emergent AE: dizziness, subjects” value ([2]; nicotine group) of the same molecule?
**A.** 11%

**Q.** What about the “treatment-emergent AE: fatigue, subjects” value ([2]; nicotine group) of the same molecule?
**A.** 9%

**Q.** What about the “treatment-emergent AE: nausea, subjects” value ([2]; nicotine group) of the same molecule?
**A.** 31%

**Q.** What about the “treatment-emergent AE: nightmares, subjects” value ([2]; nicotine group) of the same molecule?
**A.** 6%

**Q.** And the “treatment-emergent AE: non-specific pain, subjects” value ([2]; nicotine group)?
**A.** 9%

**Q.** What about the “treatment-emergent AE: vomiting, subjects” value ([2]; nicotine group) of the same molecule?
**A.** 6%

**Q.** What about the “subjects withdrawn due to treatment-related AEs” value (from here on “subjects withdrawn due”) ([2]; nicotine group, n=35 randomized) of the same molecule?
**A.** 6 subjects

**Q.** And the “subjects withdrawn due” value ([2]; on 4 mg/day)?
**A.** 1 subject

**Q.** And the “subjects withdrawn due” value ([2]; on 8 mg/day)?
**A.** 1 subject

**Q.** And the “subjects withdrawn due” value ([2]; on 16 mg/day)?
**A.** 2 subjects

**Q.** What about the “subjects withdrawn due” value ([2]; on 24 mg/day) of the same molecule?
**A.** 2 subjects

**Q.** What about the serum cotinine levels ([2]; patients treated with nicotine, dose escalation) of the same molecule?
**A.** increased with increasing dose

**Q.** And the “intensity of the majority of adverse events” value ([2]; transient in duration)?
**A.** mild or moderate in intensity

**Q.** What about the UPDRS total scores ([3]; 10 weeks of treatment) of the same molecule?
**A.** did not worsen, but improved

**Q.** What about the “number of UDysRS subscores improved (mean changes from baseline compared to pbo)” value ([3]; Week 10 (FIG. 3)) of the same molecule?
**A.** 9 of 10

**Q.** And the “UPDRS Part III score, maximum mean improvement” value ([3]; Week 10, change from baseline (FIG. 1))?
**A.** 2.0 points

**Q.** And the “LF-ADL responders (>25% improvement from baseline)” value ([3]; Week 10, p=0.04 versus pbo)?
**A.** 56%

**Q.** And the “CGI-C pattern compared to pbo” value ([3]; after 10 weeks (FIG. 4))?
**A.** similar, but not statistically significant pattern

**Q.** And the “PGI-C: patients rating themselves as having any degree of improvement” value ([3]; after 10 weeks, p=0.004 versus pbo (FIG. 4))?
**A.** 78%

**Q.** What about the “efficacy on LIDS on the majority of patient- and physician-rated outcome measures” value ([3]; compared to pbo) of the same molecule?
**A.** trend or statistically significant improvement

**Q.** And the “UPDRS mean change from baseline to Week 10” value ([3]; compared to placebo, every visit during drug treatment)?
**A.** numerical improvement

**Q.** What about the UDysRS total score ([3]; every study visit during the drug-treatment period (FIG. 2)) of the same molecule?
**A.** Mean improvement from baseline and greater separation from pbo

**Q.** And the “PGI-C: distribution of subjects in each category compared to pbo” value ([3]; p=0.02)?
**A.** significant

**Q.** And the “ambulation (UDysRS subscore)” value ([3]; versus pbo, p=0.01)?
**A.** Statistically significant improvement

**Q.** What about the “changes in ECG parameters” value [4] of the same molecule?
**A.** no clinically relevant changes

**Q.** What about the “withdrawal symptoms as assessed by MNWS-R, clinical relevance” value [4] of the same molecule?
**A.** not a clinically relevant issue
